Experimental findings from the NIST ThermoML archive (doi:10.1016/j.jct.2006.12.003) are described below.

± gives the expanded uncertainty stated by the source.

For data set [1] the following is noted: 293.15 K; 101.33 kPa; Liquid.
The nature of data set [2]: refractive index (Na D-line) (dimensionless). The conditions noted are these: 293.15 K; 101.33 kPa; Liquid; Standard Abbe refractometry.

Turning to `ClCCCl` [1,2-dichloroethane], the mass density (as a rule, the mass of a sample divided by its volume) in data set [1] amounted to 1251 ± 1 kg/m3. The refractive index (in general, a measure of how strongly the sample bends light) in data set [2] is given as 1.4445 ± 0.0007.
On the same counts, the results for `CC(=O)O` [acetic acid] are 1049.4 ± 0.3 kg/m3 and 1.3713 ± 0.0007.
As to `Cc1ccccc1` [toluene], the mass density in data set [1] amounted to 862.2 ± 0.5 kg/m3. Further, the refractive index in data set [2] turned out to be 1.4953 ± 0.0007.
